Assay results as given in ChEMBL document CHEMBL3217491, “Design, synthesis and biological evaluation of imidazopyridine/pyrimidine-chalcone derivatives as potential anticancer agents” (2010).
The source made the active and inactive calls. The rule behind the calls is not given here.

What was measured:
MDA-MB-231 = experiment: Growth inhibition of human MDA-MB-231 cells after 48 hrs by SRB assay; type: functional; conditions: MDA-MB-231, 48 h
ACHN = experiment: Growth inhibition of human ACHN cells after 48 hrs by SRB assay; type: functional
[1] = Growth inhibition of human RXF393 cells after 48 hrs by SRB assay; type: functional; conditions: RXF 393, 48 h
[2] = Growth inhibition of human EKVX cells after 48 hrs by SRB assay; type: functional
NCI-H460 = experiment: Growth inhibition of human NCI-H460 cells after 48 hrs by SRB assay; type: functional; conditions: NCI-H460, 48 h
NCI-H23 = experiment: Growth inhibition of human NCI-H23 cells after 48 hrs by SRB assay; type: functional; conditions: NCI-H23, 48 h
SF-268 = experiment: Growth inhibition of human SF268 cells after 48 hrs by SRB assay; type: functional; conditions: SF-268, 48 h
[3] = Growth inhibition of human OVCAR8 cells after 48 hrs by SRB assay; type: functional; conditions: OVCAR-8, 48 h
MCF7 [4] = experiment: Growth inhibition of human MCF7 cells after 48 hrs by SRB assay; type: functional; conditions: MCF7, 48 h
COLO 205 = experiment: Growth inhibition of human COLO205 cells after 48 hrs by SRB assay; type: functional; conditions: COLO 205, 48 h
HOP-62 = experiment: Growth inhibition of human HOP62 cells after 48 hrs by SRB assay; type: functional; conditions: HOP-62, 48 h
HCT-116 = experiment: Growth inhibition of human HCT116 cells after 48 hrs by SRB assay; type: functional; conditions: HCT-116, 48 h
A498 = experiment: Growth inhibition of human A498 cells after 48 hrs by SRB assay; type: functional; conditions: A498, 48 h
IGROV-1 = experiment: Growth inhibition of human IGROV1 cells after 48 hrs by SRB assay; type: functional; conditions: IGROV-1, 48 h
RPMI-8226 = experiment: Growth inhibition of human RPMI8226 cells after 48 hrs by SRB assay; type: functional; conditions: RPMI-8226, 48 h
SK-OV-3 = experiment: Growth inhibition of human SKOV3 cells after 48 hrs by SRB assay; type: functional; conditions: SK-OV-3, 48 h
[5] = Growth inhibition of human HOP92 cells after 48 hrs by SRB assay; type: functional; conditions: HOP-92, 48 h
NCI-H322M = experiment: Growth inhibition of human NCI-H322M cells after 48 hrs by SRB assay; type: functional
TK-10 = experiment: Growth inhibition of human TK10 cells after 48 hrs by SRB assay; type: functional; conditions: TK-10, 48 h
U-251 = experiment: Growth inhibition of human U251 cells after 48 hrs by SRB assay; type: functional; conditions: U-251, 48 h
[6] = Growth inhibition of human Hs578T cells after 48 hrs by SRB assay; type: functional; conditions: Hs-578T
SK-MEL-5 = experiment: Growth inhibition of human SK-MEL-5 cells after 48 hrs by SRB assay; type: functional; conditions: SK-MEL-5, 48 h
Malme-3M = experiment: Growth inhibition of human MALME-3M cells after 48 hrs by SRB assay; type: functional
[7] = Growth inhibition of human UACC257 cells after 48 hrs by SRB assay; type: functional; conditions: UACC-257, 48 h
[8] = Growth inhibition of human UACC62 cells after 48 hrs by SRB assay; type: functional; conditions: UACC-62, 48 h
MCF7 [9] = experiment: Cell cycle arrest in human MCF7 cells assessed as accumulation at S phase at 4 uM after 24 hrs by propidium iodide staining-based flow cytometry (reference value: 20.17%); type: functional
HT-29 = experiment: Growth inhibition of human HT-29 cells after 48 hrs by SRB assay; type: functional; conditions: HT-29, 48 h
[10] = Growth inhibition of human UO31 cells after 48 hrs by SRB assay; type: functional; conditions: UO-31, 48 h
SNB-19 = experiment: Growth inhibition of human SNB19 cells after 48 hrs by SRB assay; type: functional; conditions: SNB-19, 48 h
[11] = Growth inhibition of human SF295 cells after 48 hrs by SRB assay; type: functional; conditions: SF-295, 48 h
SK-MEL-28 = experiment: Growth inhibition of human SK-MEL-28 cells after 48 hrs by SRB assay; type: functional; conditions: SK-MEL-28, 48 h
MCF7 [12] = experiment: Growth inhibition of human MCF7 cells assessed as cell viability at 4 uM after 24 hrs by MTT assay; type: functional, cell-based
[13] = Growth inhibition of human BT549 cells after 48 hrs by SRB assay; type: functional; conditions: BT-549, 48 h
MCF7 [14] = experiment: Cell cycle arrest in human MCF7 cells assessed as accumulation at G2/M phase at 4 uM after 24 hrs by propidium iodide staining-based flow cytometry (reference value: 15.79%); type: functional
PC-3 = experiment: Growth inhibition of human PC3 cells after 48 hrs by SRB assay; type: functional; conditions: PC-3, 48 h
HL-60(TB) = experiment: Growth inhibition of human HL-60(TB) cells after 48 hrs by SRB assay; type: functional; conditions: HL-60, 48 h
KM12 = experiment: Growth inhibition of human KM12 cells after 48 hrs by SRB assay; type: functional; conditions: KM12, 48 h
SR = experiment: Growth inhibition of human SR cells after 48 hrs by SRB assay; type: functional
[15] = Growth inhibition of human HCT15 cells after 48 hrs by SRB assay; type: functional; conditions: HCT-15, 48 h
MDA-MB-468 = experiment: Growth inhibition of human MDA-MB-468 cells after 48 hrs by SRB assay; type: functional; conditions: MDA-MB-468, 48 h
[16] = Growth inhibition of human NCI-ADR-RES cells after 48 hrs by SRB assay; type: functional
[17] = Growth inhibition of human LOXIMVI cells after 48 hrs by SRB assay; type: functional; conditions: LOX IMVI
SN12C = experiment: Growth inhibition of human SN12C cells after 48 hrs by SRB assay; type: functional
[18] = Growth inhibition of human OVCAR4 cells after 48 hrs by SRB assay; type: functional; conditions: OVCAR-4, 48 h
CAKI-1 = experiment: Growth inhibition of human Caki1 cells after 48 hrs by SRB assay; type: functional; conditions: CAKI-1, 48 h
SW-620 = experiment: Growth inhibition of human SW620 cells after 48 hrs by SRB assay; type: functional; conditions: SW-620, 48 h
SNB-75 = experiment: Growth inhibition of human SNB75 cells after 48 hrs by SRB assay; type: functional; conditions: SNB-75, 48 h
T47D = experiment: Growth inhibition of human T47D cells after 48 hrs by SRB assay; type: functional
[19] = Growth inhibition of human OVCAR5 cells after 48 hrs by SRB assay; type: functional; conditions: OVCAR-5, 48 h
786-0 = experiment: Growth inhibition of human 786-0 cells after 48 hrs by SRB assay; type: functional; conditions: 786-0, 48 h
[20] = Growth inhibition of human HCC2998 cells after 48 hrs by SRB assay; type: functional; conditions: HCC 2998, 48 h
M14 = experiment: Growth inhibition of human M14 cells after 48 hrs by SRB assay; type: functional; conditions: M14, 48 h
NCI-H522 = experiment: Growth inhibition of human NCI-H522 cells after 48 hrs by SRB assay; type: functional; conditions: NCI-H522, 48 h
[21] = Growth inhibition of human MOLT4 cells after 48 hrs by SRB assay; type: functional; conditions: MOLT-4, 48 h
DU-145 = experiment: Growth inhibition of human DU145 cells after 48 hrs by SRB assay; type: functional; conditions: DU-145, 48 h
[22] = Growth inhibition of human SF539 cells after 48 hrs by SRB assay; type: functional; conditions: SF-539, 48 h
MDA-MB-435 = experiment: Growth inhibition of human MDA-MB-435 cells after 48 hrs by SRB assay; type: functional; conditions: MDA-MB-435, 48 h
K562 = experiment: Growth inhibition of human K562 cells after 48 hrs by SRB assay; type: functional; conditions: K562, 48 h
A549 = experiment: Growth inhibition of human A549 cells after 48 hrs by SRB assay; type: functional; conditions: A549, 48 h
CCRF-CEM = experiment: Growth inhibition of human CCRF-CEM cells after 48 hrs by SRB assay; type: functional
SK-MEL-2 = experiment: Growth inhibition of human SK-MEL-2 cells after 48 hrs by SRB assay; type: functional; conditions: SK-MEL-2, 48 h
[23] = Growth inhibition of human OVCAR3 cells after 48 hrs by SRB assay; type: functional; conditions: OVCAR-3, 48 h
NCI-H226 = experiment: Growth inhibition of human NCI-H226 cells after 48 hrs by SRB assay; type: functional; conditions: NCI-H226, 48 h
MCF7 [24] = experiment: Cell cycle arrest in human MCF7 cells assessed as accumulation at G0/G1 phase at 4 uM after 24 hrs by propidium iodide staining-based flow cytometry (reference value: 64.04%); type: functional

`COc1cc(C(=O)/C=C/c2c(-c3ccc(F)cc3)nc3ncccn23)cc(OC)c1OC` showed a GI50 (MDA-MB-231) of 2990 nM, a GI50 (ACHN) of 2210 nM and a GI50 [1] of 1440 nM. The GI50 [2] was 2710 nM, the GI50 (NCI-H460) was 1590 nM and the GI50 (NCI-H23) was 1580 nM. For the same compound, the GI50 (SF-268) was 1900 nM, the GI50 [3] was 2690 nM and the GI50 (MCF7 [4]) was 1610 nM. The GI50 (COLO 205) was 1700 nM, the GI50 (HOP-62) was 3120 nM and the GI50 (HCT-116) was 1530 nM. For the same compound, the GI50 (A498) was 2200 nM, the GI50 (IGROV-1) was 1930 nM and the GI50 (RPMI-8226) was 2560 nM. It also gave a GI50 (SK-OV-3) of 2640 nM, a GI50 [5] of 1770 nM and a GI50 (NCI-H322M) of 2070 nM. For the same compound, the GI50 (TK-10) was 3250 nM, the GI50 (U-251) was 1680 nM and the GI50 [6] was 2010 nM. For the same compound, the GI50 (SK-MEL-5) was 2220 nM, the GI50 (Malme-3M) was 2840 nM and the GI50 [7] was 3730 nM. It also gave a GI50 [8] of 1740 nM, an Activity (MCF7 [9]) of 21.89% and a GI50 (HT-29) of 2520 nM. It also gave a GI50 [10] of 730 nM, a GI50 (SNB-19) of 3120 nM and a GI50 [11] of 2430 nM. For the same compound, the GI50 (SK-MEL-28) was 3680 nM, the inhibition (MCF7 [12]) was “Active” and the GI50 [13] was 1800 nM. For the same compound, the Activity (MCF7 [14]) was 3.95%, the GI50 (PC-3) was 4350 nM and the GI50 (HL-60(TB)) was 3330 nM. It also gave a GI50 (KM12) of 1690 nM, a GI50 (SR) of 2280 nM and a GI50 [15] of 2110 nM. It also gave a GI50 (MDA-MB-468) of 2750 nM, a GI50 [16] of 1580 nM and a GI50 [17] of 1570 nM. It also gave a GI50 (SN12C) of 2260 nM, a GI50 [18] of 2930 nM and a GI50 (CAKI-1) of 2060 nM. It also gave a GI50 (SW-620) of 2090 nM, a GI50 (SNB-75) of 2390 nM and a GI50 (T47D) of 2090 nM. For the same compound, the GI50 [19] was 2460 nM, the GI50 (786-0) was 2760 nM and the GI50 [20] was 1770 nM. It also gave a GI50 (M14) of 2160 nM, a GI50 (NCI-H522) of 2870 nM and a GI50 [21] of 3750 nM. For the same compound, the GI50 (DU-145) was 1630 nM, the GI50 [22] was 1550 nM and the GI50 (MDA-MB-435) was 2360 nM. It also gave a GI50 (K562) of 3030 nM, a GI50 (A549) of 3340 nM and a GI50 (CCRF-CEM) of 4050 nM. The GI50 (SK-MEL-2) was 2380 nM, the GI50 [23] was 1400 nM and the GI50 (NCI-H226) was 3080 nM. For the same compound, the Activity (MCF7 [24]) was 74.16%.
